The source of these data is ChEMBL document CHEMBL5465560, “Selectivity Literature for EUbOPEN Chemogenomic Library” (2024).

Data set [1] has as its system Tyrosine-protein kinase ABL1 (Homo sapiens), P00519 [T315I]. The experiment in a line: (§1) Selectivity interaction (Kinase panel (Z-LYTE Assay)) EUB0001632a ABL1. Conditions: at 10 µM.
For data set [2], the system named is Tyrosine-protein kinase ABL1 (Homo sapiens), P00519 [G250E]. Described as §1. Conditions: at 10 µM.
The test system of data set [3] is Tyrosine-protein kinase ABL1 (Homo sapiens), P00519 [F317I]. Described as §1. Conditions: at 10 µM.
Data set [4] deals with Tyrosine-protein kinase ABL1 (Homo sapiens), P00519 [E255K]. The description is as §1. The following applies: at 10 µM.
For data set [5], the target named is Myosin light chain kinase 2, skeletal/cardiac muscle (Homo sapiens) (UniProt Q9H1R3). The experiment in a line: Selectivity interaction (Kinase panel (Z-LYTE Assay)) EUB0001632a MYLK2. Conditions: at 10 µM.
Data set [6] addresses SRSF protein kinase 2 (Homo sapiens) (UniProt P78362). The experiment in a line: Selectivity interaction (Kinase panel (Z-LYTE Assay)) EUB0001632a SRPK2. Conditions: at 10 µM.
In data set [7] the target is Amine oxidase [flavin-containing] B (Homo sapiens, UniProt P27338). The experiment in a line: Selectivity interaction (Eurofins safety panel) EUB0001564a MAOB. Conditions: at 10 µM.
Data set [8] deals with Phosphatidylinositol 4-kinase beta (Homo sapiens, UniProt Q9UBF8). Kind of data set: Selectivity interaction (KinomeScan (DiscoverX)) EUB0000595a PI4KB. Conditions: at 10 µM.
In data set [9] the target is Serine/threonine-protein kinase PLK1 (Homo sapiens, UniProt P53350). The experiment in a line: Selectivity interaction (KinomeScan (DiscoverX)) EUB0001619a PLK1. Conditions: at 1 µM.
The target of data set [10] is Casein kinase II subunit alpha' (Homo sapiens) (UniProt P19784). The following applies: at 10 µM.
Data set [11] deals with Protein kinase C eta type (Homo sapiens) (UniProt P24723). The experiment in a line: Selectivity interaction (SelectScreen profiling (Invitrogen)) EUB0000607a PRKCH. Conditions: at 2 µM.
Data set [12] deals with Angiopoietin-1 receptor (Homo sapiens) (UniProt Q02763). Kind of data set: Selectivity interaction (KinomeScan (DiscoverX)) EUB0000045b TEK.
Data set [13] has as its target Serine/threonine-protein kinase 25 (Homo sapiens) (UniProt O00506). Kind of data set: Selectivity interaction (KinomeScan (DiscoverX)) EUB0000045b STK25.
Data set [14] has as its target MAP/microtubule affinity-regulating kinase 3 (Homo sapiens) (UniProt P27448). Kind of data set: Selectivity interaction (Kinase panel (literature)) EUB0001199aCl MARK3. The following applies: at 1 µM.
Data set [15] has as its target T1, Serine/threonine-protein kinase Sgk1 (Homo sapiens) (UniProt O00141).
T1 sequence (whole entry): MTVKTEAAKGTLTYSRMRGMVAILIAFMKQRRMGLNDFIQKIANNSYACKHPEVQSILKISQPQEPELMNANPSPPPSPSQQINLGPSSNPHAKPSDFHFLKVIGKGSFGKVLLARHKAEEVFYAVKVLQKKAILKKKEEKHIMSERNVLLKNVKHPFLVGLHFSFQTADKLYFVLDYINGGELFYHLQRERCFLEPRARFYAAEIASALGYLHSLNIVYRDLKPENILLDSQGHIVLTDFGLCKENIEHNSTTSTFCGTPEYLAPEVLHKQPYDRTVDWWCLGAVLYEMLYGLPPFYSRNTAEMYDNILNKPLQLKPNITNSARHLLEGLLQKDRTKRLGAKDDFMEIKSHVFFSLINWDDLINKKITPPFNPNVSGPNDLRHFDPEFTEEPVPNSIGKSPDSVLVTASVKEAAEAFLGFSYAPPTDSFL
The experiment in a line: Selectivity interaction (Kinase panel (literature)) EUB0001199aCl SGK1. Conditions: at 1 µM.

For data set [16], the target named is Serine/threonine-protein kinase PAK 6 (Homo sapiens) (UniProt Q9NQU5). Kind of data set: Selectivity interaction (Ambit KINOMEscan and KiNATiv profiling in Jurkat cells) EUB0000090b PAK6. The class given is cell-based. The following applies: at 1 µM.
Data set [17] concerns the target Mitogen-activated protein kinase 11 (Homo sapiens) (UniProt Q15759). Kind of data set: Selectivity interaction (Ambit KINOMEscan and KiNATiv profiling in Jurkat cells) EUB0000090b MAPK11. The class given is cell-based. The following applies: at 1 µM.
The target in data set [18] is Serine/threonine-protein kinase Chk1 (Homo sapiens, UniProt O14757).
Data set [19] has as its target Ribosomal protein S6 kinase beta-1 (Homo sapiens, UniProt P23443). Kind of data set: Selectivity interaction (KinomeScan (DiscoverX)) EUB0001049a RPS6KB1. The following applies: at 1 µM.
In data set [20] the target is T2, 5-hydroxytryptamine receptor 1A (Homo sapiens) (UniProt P08908).
T2 sequence (whole entry): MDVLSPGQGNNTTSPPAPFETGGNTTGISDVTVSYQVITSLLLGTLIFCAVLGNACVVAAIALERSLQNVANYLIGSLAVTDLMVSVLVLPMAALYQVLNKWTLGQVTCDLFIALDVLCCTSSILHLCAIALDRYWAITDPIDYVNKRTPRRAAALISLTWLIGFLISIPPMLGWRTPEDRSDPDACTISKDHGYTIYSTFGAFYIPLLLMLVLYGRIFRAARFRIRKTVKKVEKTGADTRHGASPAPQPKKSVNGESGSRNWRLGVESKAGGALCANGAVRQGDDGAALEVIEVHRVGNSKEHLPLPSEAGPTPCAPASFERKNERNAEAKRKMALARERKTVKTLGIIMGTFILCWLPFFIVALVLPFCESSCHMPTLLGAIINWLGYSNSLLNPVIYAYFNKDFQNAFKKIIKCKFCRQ
The experiment in a line: Selectivity interaction (Panel of non-epigenetic targets (kinases, GPCRs, ion channels, and transporters, Eurofins) ) EUB0000271b HTR1A. Conditions: at 1 µM.

In data set [21] the target is MAP kinase-interacting serine/threonine-protein kinase 1 (Homo sapiens) (UniProt Q9BUB5). The experiment in a line: Selectivity interaction (KinomeScan (DiscoverX)) EUB0001079a MKNK1. The following applies: at 1 µM.
The target of data set [22] is Interferon-induced, double-stranded RNA-activated protein kinase (Homo sapiens) (UniProt P19525). The experiment in a line: Selectivity interaction (Kinase panel (KiNativ target engagement assay in Jurkat cells)) EUB0001635a EIF2AK2. The class given is cell-based. Conditions: Selectivity number of off-targets 0.0, Selectivity number of targets 233.0, Source Knowledge https://www.sciencedirect.com/science/article/pii/S2451945619300674?via%3Dihub, at 1 µM.

Chain of Serine/threonine-protein kinase 25 (Homo sapiens) (O00506 whole entry, looked up): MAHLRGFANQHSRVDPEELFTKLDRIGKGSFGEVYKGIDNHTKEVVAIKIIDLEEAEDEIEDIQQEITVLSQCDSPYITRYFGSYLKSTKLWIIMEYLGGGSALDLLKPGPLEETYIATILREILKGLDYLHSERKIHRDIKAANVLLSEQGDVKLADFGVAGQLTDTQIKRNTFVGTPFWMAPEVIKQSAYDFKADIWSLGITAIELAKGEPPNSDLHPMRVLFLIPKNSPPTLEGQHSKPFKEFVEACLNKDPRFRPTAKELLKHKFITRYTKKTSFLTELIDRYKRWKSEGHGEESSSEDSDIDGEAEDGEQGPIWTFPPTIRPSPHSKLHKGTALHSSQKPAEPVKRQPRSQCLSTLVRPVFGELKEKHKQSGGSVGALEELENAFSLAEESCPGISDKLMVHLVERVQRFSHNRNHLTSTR
Chain of Angiopoietin-1 receptor (Homo sapiens) (Q02763 whole entry): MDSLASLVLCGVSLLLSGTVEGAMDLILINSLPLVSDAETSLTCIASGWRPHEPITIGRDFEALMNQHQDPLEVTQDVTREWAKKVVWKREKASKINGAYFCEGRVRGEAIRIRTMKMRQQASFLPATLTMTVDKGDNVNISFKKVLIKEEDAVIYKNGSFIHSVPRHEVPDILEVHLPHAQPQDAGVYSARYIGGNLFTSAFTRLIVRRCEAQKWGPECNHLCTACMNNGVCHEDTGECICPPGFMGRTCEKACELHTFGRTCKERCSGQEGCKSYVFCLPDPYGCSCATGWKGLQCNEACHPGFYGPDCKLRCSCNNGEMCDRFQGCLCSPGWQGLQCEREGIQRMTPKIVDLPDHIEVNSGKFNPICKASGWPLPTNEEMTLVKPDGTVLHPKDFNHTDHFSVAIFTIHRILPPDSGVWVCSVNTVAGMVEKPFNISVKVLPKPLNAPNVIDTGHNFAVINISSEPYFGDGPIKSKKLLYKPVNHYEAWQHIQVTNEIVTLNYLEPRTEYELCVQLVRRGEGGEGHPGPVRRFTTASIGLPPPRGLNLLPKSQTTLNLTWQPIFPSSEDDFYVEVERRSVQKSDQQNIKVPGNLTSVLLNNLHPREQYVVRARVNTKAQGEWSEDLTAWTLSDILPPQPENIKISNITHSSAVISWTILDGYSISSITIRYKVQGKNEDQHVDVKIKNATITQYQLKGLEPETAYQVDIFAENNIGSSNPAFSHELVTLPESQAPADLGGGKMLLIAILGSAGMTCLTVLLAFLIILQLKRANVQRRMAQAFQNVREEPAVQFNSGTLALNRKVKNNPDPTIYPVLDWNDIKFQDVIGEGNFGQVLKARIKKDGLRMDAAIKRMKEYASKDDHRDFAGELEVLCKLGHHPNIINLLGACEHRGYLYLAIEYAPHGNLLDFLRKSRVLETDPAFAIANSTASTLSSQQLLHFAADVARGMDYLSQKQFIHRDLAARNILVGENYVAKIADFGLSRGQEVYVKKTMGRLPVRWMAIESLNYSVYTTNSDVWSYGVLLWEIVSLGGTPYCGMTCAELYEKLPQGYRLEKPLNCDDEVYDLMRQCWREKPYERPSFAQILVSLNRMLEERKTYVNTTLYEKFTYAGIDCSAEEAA
Chain of Ribosomal protein S6 kinase beta-1 (P23443 whole entry, looked up): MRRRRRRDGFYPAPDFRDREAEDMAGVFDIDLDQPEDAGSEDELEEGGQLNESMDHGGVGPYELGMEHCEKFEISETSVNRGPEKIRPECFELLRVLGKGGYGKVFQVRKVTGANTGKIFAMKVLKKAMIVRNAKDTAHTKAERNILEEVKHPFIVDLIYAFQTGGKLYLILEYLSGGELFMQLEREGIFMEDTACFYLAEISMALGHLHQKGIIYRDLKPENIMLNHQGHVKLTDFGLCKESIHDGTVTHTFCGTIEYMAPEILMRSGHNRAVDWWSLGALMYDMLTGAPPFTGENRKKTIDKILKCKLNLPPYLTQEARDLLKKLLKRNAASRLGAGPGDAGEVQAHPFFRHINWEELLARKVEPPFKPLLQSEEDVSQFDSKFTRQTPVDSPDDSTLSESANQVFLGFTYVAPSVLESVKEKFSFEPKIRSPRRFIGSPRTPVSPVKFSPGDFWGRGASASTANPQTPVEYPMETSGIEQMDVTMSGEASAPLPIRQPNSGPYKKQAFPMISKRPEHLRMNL
Chain of Serine/threonine-protein kinase PLK1 (P53350 whole entry): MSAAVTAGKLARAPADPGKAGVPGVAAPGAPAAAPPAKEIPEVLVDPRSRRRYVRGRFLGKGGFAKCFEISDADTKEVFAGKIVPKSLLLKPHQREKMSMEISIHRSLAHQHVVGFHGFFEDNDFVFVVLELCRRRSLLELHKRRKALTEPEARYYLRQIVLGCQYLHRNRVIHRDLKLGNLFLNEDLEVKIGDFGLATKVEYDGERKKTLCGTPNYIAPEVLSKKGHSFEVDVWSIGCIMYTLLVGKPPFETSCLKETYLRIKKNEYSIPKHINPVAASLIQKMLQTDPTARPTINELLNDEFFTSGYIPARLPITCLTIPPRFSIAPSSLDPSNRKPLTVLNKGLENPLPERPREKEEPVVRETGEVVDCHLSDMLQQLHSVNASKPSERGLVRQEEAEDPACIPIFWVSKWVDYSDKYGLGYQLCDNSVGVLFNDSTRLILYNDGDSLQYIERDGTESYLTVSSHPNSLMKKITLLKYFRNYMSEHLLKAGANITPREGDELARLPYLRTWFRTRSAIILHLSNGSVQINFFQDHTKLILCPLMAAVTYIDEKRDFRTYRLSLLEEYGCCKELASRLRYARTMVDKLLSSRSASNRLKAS
Chain of MAP kinase-interacting serine/threonine-protein kinase 1 (Homo sapiens) (Q9BUB5 whole entry, looked up): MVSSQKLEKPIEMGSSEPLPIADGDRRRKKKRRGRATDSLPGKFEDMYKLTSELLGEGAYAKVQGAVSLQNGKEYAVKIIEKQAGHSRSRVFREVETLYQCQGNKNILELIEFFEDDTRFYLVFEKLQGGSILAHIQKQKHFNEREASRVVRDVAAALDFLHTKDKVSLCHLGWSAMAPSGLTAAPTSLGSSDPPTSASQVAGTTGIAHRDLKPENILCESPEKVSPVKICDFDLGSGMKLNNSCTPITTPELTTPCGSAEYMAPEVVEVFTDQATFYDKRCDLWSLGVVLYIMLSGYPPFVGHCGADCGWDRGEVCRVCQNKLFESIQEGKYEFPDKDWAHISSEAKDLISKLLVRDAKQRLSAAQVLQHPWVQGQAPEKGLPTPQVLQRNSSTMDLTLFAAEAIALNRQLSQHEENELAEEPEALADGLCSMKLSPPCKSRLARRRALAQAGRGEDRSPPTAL
Chain of SRSF protein kinase 2 (Homo sapiens) (P78362 whole entry, looked up): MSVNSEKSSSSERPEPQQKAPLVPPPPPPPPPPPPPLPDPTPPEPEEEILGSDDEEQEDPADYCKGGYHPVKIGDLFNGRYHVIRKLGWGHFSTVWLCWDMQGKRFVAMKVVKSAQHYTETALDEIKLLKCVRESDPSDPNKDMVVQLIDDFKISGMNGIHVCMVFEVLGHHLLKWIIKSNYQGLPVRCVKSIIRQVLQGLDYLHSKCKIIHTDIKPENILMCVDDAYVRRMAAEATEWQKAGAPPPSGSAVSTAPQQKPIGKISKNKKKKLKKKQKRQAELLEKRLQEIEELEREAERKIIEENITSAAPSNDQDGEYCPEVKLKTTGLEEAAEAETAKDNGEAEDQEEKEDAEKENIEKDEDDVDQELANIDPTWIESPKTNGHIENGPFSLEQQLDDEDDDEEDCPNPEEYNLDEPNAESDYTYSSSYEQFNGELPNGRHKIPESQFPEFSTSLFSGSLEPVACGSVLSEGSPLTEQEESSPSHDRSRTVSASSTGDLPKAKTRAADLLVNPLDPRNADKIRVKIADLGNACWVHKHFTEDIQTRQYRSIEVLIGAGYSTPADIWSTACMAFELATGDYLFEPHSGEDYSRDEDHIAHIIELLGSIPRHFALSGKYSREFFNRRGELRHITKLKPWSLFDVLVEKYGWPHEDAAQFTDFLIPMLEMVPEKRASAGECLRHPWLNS
Chain of MAP/microtubule affinity-regulating kinase 3 (Homo sapiens) (P27448 whole entry, looked up): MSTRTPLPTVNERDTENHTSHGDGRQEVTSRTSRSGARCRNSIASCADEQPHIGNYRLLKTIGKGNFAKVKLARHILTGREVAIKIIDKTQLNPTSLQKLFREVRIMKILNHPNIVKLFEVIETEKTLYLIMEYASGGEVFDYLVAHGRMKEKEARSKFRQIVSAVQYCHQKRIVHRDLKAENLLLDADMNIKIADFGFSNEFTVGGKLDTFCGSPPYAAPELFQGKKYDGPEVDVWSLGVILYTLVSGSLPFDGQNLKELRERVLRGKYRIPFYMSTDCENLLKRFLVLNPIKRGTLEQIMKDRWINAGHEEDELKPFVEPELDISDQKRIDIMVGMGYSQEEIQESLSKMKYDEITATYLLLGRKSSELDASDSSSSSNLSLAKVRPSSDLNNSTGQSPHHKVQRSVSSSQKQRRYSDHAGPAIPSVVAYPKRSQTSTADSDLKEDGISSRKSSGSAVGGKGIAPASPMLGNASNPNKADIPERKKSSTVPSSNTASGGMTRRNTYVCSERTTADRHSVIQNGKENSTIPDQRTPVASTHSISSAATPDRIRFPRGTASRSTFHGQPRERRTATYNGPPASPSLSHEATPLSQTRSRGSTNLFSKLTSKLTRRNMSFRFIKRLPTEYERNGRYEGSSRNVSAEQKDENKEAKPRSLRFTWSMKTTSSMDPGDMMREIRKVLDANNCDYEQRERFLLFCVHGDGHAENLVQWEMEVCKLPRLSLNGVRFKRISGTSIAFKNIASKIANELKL
Chain of Casein kinase II subunit alpha' (Homo sapiens) (P19784 whole entry, looked up): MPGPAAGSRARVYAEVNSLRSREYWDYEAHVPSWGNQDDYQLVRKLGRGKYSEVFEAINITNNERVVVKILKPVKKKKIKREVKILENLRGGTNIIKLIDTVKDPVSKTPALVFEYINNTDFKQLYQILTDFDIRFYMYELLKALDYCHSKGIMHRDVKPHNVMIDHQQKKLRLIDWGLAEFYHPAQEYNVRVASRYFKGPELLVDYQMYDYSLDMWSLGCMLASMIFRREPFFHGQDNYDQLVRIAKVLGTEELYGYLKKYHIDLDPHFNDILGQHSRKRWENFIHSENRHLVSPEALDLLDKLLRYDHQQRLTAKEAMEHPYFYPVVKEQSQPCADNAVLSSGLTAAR

With `Cn1cc(-n2cnc3c(NCc4nc5cc(Cl)c(Cl)cc5[nH]4)nc(N4CCOCC4)nc32)cn1`, the % of control is -2.31% in data set [1]; 2.49% in [2]; 1.78% in [3]; -3.74% in [4]; 3.79% in data set [5]; -0.444% in data set [6]. Consider `CC[C@@H](Nc1c(C#N)c(-c2ccc(-c3cccc(C)c3F)cc2)nc2cnccc12)C(=O)O` [BAY-091], for which, in [7], the “% of inhibition” value is 81%. Turning to `COCC(=O)NC/C=C/c1ccc2ncnc(Nc3ccc(Oc4ccc(C)nc4)c(C)c3)c2c1` [CP-724714], in data set [8], the % of control amounted to 100%.

For `N#Cc1cccc(-c2c[nH]c3ncnc(N4CCOCC4)c23)c1`, the % of control in data set [9] is 100%. Consider `CCN(CC)CCCCNc1ncc2cc(-c3cc(OC)cc(OC)c3)c(NC(=O)NC(C)(C)C)nc2n1`, for which the % of control in data set [10] is 100%. `CNC(=O)Nc1ccc(-c2nc(N3CC4CCC(C3)O4)c3cnn(C4CCC5(CC4)OCCO5)c3n2)cc1`: the % of inhibition in data set [11] came to 14%. For the compound `C=CC(=O)Nc1cc(-n2c(=O)ccc3cnc4ccc(-c5ccc(NS(C)(=O)=O)cc5)cc4c32)ccc1C`, the % of control amounted to 89% in data set [12] (at 1 µM), 99% in data set [12] (at 10 µM), 100% in [13] (at 1 µM) and 65% in data set [13] (at 10 µM).

Regarding `CN1Cc2nccc(-c3cn(C)nc3-c3ccc(F)cc3)c2C1=O`, the % of inhibition in data set [14] was -2%; in data set [15], 2%. Consider `CN(C)C/C=C/C(=O)Nc1ccc(C(=O)N2CCCC(Nc3ncc(Cl)c(-c4c[nH]c5ccccc45)n3)C2)cc1` (centres undefined), for which the % of control was found to be 33% in data set [16] and 97% in [17].

As for `CCc1cccc(CC)c1NC(=O)c1nn(C)c2c1CCc1cnc(Nc3ccc(C(=O)NC4CCN(C)CC4)cc3OC(F)(F)F)nc1-2`, the IC50 (commonly the concentration that gives 50% inhibition) in [18] was above 10 µM. As for `COc1cc(Nc2nc(C)cc(-c3cnn4nc(OC)ccc34)n2)cc(C(F)(F)F)c1`, the % of control in data set [19] was determined as 87%. Take `Cc1cc(C)cc([C@@H]2c3cc(C)ccc3NC(=O)CN2C(=O)c2ccc(Br)s2)c1`: in [20], the % of inhibition is 5%. `Nc1cnc(N2CCc3cc(S(=O)(=O)Nc4c(F)cc(Cl)cc4F)cc(N4CCCC4=O)c32)nc1` [TP-020n]: in data set [21], the % of control was determined as 98%. For the compound `C=CC(=O)Nc1ccc(C(=O)Nc2[nH]nc3c2CN(C(=O)N[C@H](CN(C)C)c2ccccc2)C3(C)C)cc1`, in [22], the % of engagement was -0.6%.
